Laboratory results from publication PMC5761210 (Journal of Pharmaceutical Analysis, 2014).
Read-outs that look alike come from different tables or passages of the source.

Assays:
[1] = assay type: in vitro ADME, human; settings: for Qmax,24 h (maximal absorption: receptor fluid + epidermis + dermis after 24 h): percentage of the applied dose
[2] = no reference given; cited from earlier work
Salmonella typhimurium = settings: cited from earlier work
[3] = EFSA report; cited from earlier work
[4] = vehicle 50% Glycerol, mean±RSD (%)

With `CC(=O)CO` [acetol, 1-hydroxypropan-2-one] the “dose applied cumulatively found in the receptor chamber” value ([1]; after 24 h, over the investigated vehicles) was 1.3–10.0%, the “Dm (diffusion coefficient)” value ([1]; vehicle 50% EtOH, mean±RSD (%)) was 1.49±41.8 10^−4 cm^2/h and the “Kp (permeability coefficient)” value ([1]; vehicle 50% EtOH, mean±RSD (%)) was 3.91±45.1 10^−3 cm/h. The Lag time ([1]; vehicle 50% EtOH, mean±RSD (%)) was 2.14 ± 51.8 h, the “Qmax,24 h (maximal absorption: receptor fluid + epidermis + dermis after 24 h)” value (from here on “Qmax,24 h”) ([1]; vehicle 50% EtOH, mean±RSD (%)) was 7.28±29.0% and the “Dm (diffusion coefficient)” value [1, 4] was 0.73±22.4 10^−4 cm^2/h. The “Kp (permeability coefficient)” value [1, 4] was 0.78±40.3 10^−3 cm/h, the Lag time [1, 4] was 4.39 ± 28.7 h and the “Qmax,24 h” value [1, 4] was 1.75±39.0%. The “Dm (diffusion coefficient)” value ([1]; vehicle 50% PG, mean±RSD (%)) was 1.07±103.0 10^−4 cm^2/h, the “Kp (permeability coefficient)” value ([1]; vehicle 50% PG, mean±RSD (%)) was 1.30±79.0 10^−3 cm/h and the Lag time ([1]; vehicle 50% PG, mean±RSD (%)) was 5.65 ± 70.9 h. For the same molecule, the “Qmax,24 h” value ([1]; vehicle 50% PG, mean±RSD (%)) was 2.94±76.0%, the “Jss (steady-state flux)” value ([1]; vehicle H2O (pure water), 5% acetol (m/V), 500 µL infinite dose, mean±RSD (%)) was 68.3±21.2 µg/cm^2/h and the “Dm (diffusion coefficient)” value ([1]; vehicle H2O, mean±RSD (%)) was 1.28±49.6 10^−4 cm^2/h. For the same molecule, the “Kp (permeability coefficient)” value ([1]; vehicle H2O, mean±RSD (%)) was 1.30±21.2 10^−3 cm/h, the Lag time ([1]; vehicle H2O, mean±RSD (%)) was 2.95 ± 71.0 h and the “Qmax,24 h” value ([1]; vehicle H2O, mean±RSD (%)) was 3.37±11.7%. For the same molecule, the “Kp (permeability coefficient)” value ([1]; vehicle PG (propylene glycol/water 50/50, V/V)) was 0.0013 cm/h, the “Kp (permeability coefficient)” value ([1]; vehicle glycerol (glycerol/water 50/50, V/V)) was 0.000778 cm/h and the “Kp (permeability coefficient)” value ([1]; vehicle water) was 0.0013 cm/h. For the same molecule, the “log Pow” value [2] was −0.78, the “Ames tests (in-vitro mutagenic properties)” value (Salmonella typhimurium) was “positive” and the genotoxic in-vivo [3] was “not likely”.
